Measured values as given in ChEMBL document CHEMBL1126639, “Centrally acting serotonergic and dopaminergic agents. 2. Synthesis and structure-activity relationships of 2,3,3a,4,9,9a-hexahydro-1H-benz[f]indole derivatives” (J Med Chem, 1993).
“And” between values parts separate entries of the source, which are not always exact repeats. Identical values can stand only once. The source made the active and inactive calls. No cut-off for these calls is given here.

Key:
[1] = biological target: T1, D(2) dopamine receptor (Rattus norvegicus, UniProt P61169); experiment: Inhibitory concentration against [3H]raclopride-labeled dopamine receptor D2 in rat striatum; format: tissue-based
T1 sequence (P61169 whole entry): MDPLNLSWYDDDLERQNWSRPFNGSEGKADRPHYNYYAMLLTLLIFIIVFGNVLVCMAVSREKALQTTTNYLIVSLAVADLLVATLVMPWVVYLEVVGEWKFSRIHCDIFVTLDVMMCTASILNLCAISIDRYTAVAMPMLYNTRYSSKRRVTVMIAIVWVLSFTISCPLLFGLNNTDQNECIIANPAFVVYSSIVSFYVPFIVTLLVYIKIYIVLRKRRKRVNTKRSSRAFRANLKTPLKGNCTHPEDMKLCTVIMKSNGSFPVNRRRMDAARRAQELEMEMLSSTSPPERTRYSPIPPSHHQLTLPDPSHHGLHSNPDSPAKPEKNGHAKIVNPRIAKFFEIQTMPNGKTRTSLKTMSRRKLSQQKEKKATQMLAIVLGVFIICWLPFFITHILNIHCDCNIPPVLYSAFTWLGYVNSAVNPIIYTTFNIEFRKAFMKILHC

[2] = test system: Mus musculus; experiment: Antagonism of apomorphine for 10-20 minutes in reserpinized mice when a dose of 0.4 micro mol/kg is administered intraperitoneally; format: functional
[3] = test system: Mus musculus; experiment: Ability to stimulate dopaminergic systems by effect on locomotor activity in reserpinized mice when a dose of 3.6 micro mol/kg is administered intraperitoneally; format: functional
[4] = test system: Mus musculus; experiment: Antagonism of apomorphine in reserpinized mice when a dose of 36 micro mol/kg is administered intraperitoneally; format: functional
[5] = test system: Mus musculus; experiment: Antagonism of apomorphine for 10-20 minutes in reserpinized mice when a dose of 3.6 micro mol/kg is administered intraperitoneally; format: functional
[6] = test system: Mus musculus; experiment: Antagonism of apomorphine for 10-20 minutes in reserpinized mice when a dose of 36 micro mol/kg is administered intraperitoneally; format: functional
[7] = test system: Mus musculus; experiment: Ability to stimulate dopaminergic systems by effect on locomotor activity in reserpinized mice when a dose of 36 micro mol/kg is administered intraperitoneally; format: functional
[8] = biological target: T1, D(2) dopamine receptor; experiment: Binding affinity for [3H]raclopride-labeled dopamine receptor D2 in rat striatum; format: tissue-based
[9] = test system: Mus musculus; experiment: Antagonism of apomorphine in reserpinized mice when a dose of 0.4 micro mol/kg is administered intraperitoneally; format: functional
[10] = test system: Mus musculus; experiment: Antagonism of apomorphine for 0-10 minutes in reserpinized mice when a dose of 0.4 micro mol/kg is administered intraperitoneally; format: functional
[11] = test system: Mus musculus; experiment: Antagonism of apomorphine in reserpinized mice when a dose of 3.6 micro mol/kg is administered intraperitoneally; format: functional
[12] = biological target: T2, D(2) dopamine receptor (Homo sapiens, UniProt P14416); experiment: Intrinsic activity from GTP shift using CHO cell membranes expressing dopamine receptor D2; format: functional
T2 sequence (P14416 whole entry): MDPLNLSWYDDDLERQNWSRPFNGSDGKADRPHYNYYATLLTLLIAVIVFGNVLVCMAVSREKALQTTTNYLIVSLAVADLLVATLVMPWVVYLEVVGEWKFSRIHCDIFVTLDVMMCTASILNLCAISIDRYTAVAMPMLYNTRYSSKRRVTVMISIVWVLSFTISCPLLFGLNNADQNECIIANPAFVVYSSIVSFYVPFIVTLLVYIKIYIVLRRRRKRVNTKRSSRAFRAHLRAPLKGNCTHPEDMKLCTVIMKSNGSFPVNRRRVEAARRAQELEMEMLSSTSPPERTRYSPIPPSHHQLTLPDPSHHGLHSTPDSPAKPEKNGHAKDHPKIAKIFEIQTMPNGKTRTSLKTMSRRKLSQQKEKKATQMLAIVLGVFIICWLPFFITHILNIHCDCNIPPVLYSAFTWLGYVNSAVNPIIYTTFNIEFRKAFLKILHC

[13] = test system: Mus musculus; experiment: Antagonism of apomorphine for 0-10 minutes in reserpinized mice when a dose of 3.6 micro mol/kg is administered intraperitoneally; format: functional
[14] = test system: Mus musculus; experiment: Antagonism of apomorphine for 0-10 minutes in reserpinized mice when a dose of 36 micro mol/kg is administered intraperitoneally; format: functional
[15] = test system: Mus musculus; experiment: Ability to stimulate dopaminergic systems by effect on locomotor activity in reserpinized mice when a dose of 0.4 micro mol/kg is administered intraperitoneally; format: functional
[16] = test system: Mus musculus; experiment: Effective dose on hypothermia in mouse when administered through peroral route; format: functional; conditions: Mus musculus, po; read-out: ED50
[17] = test system: Mus musculus; experiment: Effective dose on hypothermia in mouse when administered subcutaneously; format: functional; conditions: Mus musculus, sc; read-out: ED50
[18] = test system: Mus musculus; experiment: Maximum decrease in temperature when compound is administered subcutaneously; format: functional
[19] = species on record: Mus musculus; experiment: Time of effect in the face-to-face behavioral assay in the mouse […]; format: functional
[20] = test system: Mus musculus; experiment: Time of effect in the face-to-face behavioral assay in the mouse when a dose of 5.4 micro mol/kg is administered subcutaneously; format: functional
[21] = test system: Mus musculus; experiment: Time of effect in the face-to-face behavioral assay in the mouse when a dose of 54 micro mol/kg is administered subcutaneously; format: functional
[22] = biological target: T1, D(2) dopamine receptor; experiment: Inhibitory concentration against [3H]raclopride-labeled dopamine receptor D2 in rat striatum was estimated from single point experiment. compound was run at 1 uM
[23] = test system: Felis catus; experiment: Effective dose at which the sympathetic nerve activity (SND) has been reduced to 50% of the pretreatment value in anesthetized cat; In active; format: functional, organism-based
[24] = biological target: Sodium-dependent dopamine transporter (Rattus norvegicus) (UniProt P23977); experiment: Inhibition of firing rates of dopaminergic neurons in the substantia nigra pars compacta by intravenous injection in rats; format: functional, tissue-based
Sodium-dependent dopamine transporter (Rattus norvegicus), sequence (P23977 whole entry): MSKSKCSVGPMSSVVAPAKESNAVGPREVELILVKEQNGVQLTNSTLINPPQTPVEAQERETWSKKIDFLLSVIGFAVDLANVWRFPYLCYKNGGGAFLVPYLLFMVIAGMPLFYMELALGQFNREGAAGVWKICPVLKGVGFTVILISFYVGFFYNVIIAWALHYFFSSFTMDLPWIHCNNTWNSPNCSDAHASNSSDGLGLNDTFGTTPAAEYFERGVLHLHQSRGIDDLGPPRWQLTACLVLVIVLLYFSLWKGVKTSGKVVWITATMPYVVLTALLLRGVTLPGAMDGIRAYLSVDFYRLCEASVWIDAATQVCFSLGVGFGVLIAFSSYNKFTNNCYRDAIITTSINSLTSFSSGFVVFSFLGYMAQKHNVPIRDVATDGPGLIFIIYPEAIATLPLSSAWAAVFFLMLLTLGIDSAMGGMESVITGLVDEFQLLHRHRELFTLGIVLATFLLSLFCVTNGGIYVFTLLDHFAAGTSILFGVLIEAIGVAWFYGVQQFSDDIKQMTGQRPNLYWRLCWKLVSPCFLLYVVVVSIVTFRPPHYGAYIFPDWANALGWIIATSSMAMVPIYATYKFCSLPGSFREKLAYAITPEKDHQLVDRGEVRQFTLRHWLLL

[25] = test system: Mus musculus; experiment: Antagonism of apomorphine in reserpinized mice when a dose of 3.7 micro mol/kg is administered intraperitoneally; format: functional
[26] = test system: Mus musculus; experiment: Antagonism of apomorphine for 10-20 minutes in reserpinized mice when a dose of 3.7 micro mol/kg is administered intraperitoneally; format: functional
[27] = test system: Rattus norvegicus; experiment: Inhibition of firing rates of dopaminergic neurons in the substantia nigra pars compacta by intravenous injection in rats.; format: functional
[28] = test system: Mus musculus; experiment: Ability to stimulate dopaminergic systems by effect on locomotor activity in reserpinized mice when a dose of 3.7 micro mol/kg is administered intraperitoneally; format: functional
[29] = test system: Mus musculus; experiment: Antagonism of apomorphine in reserpinized mice when a dose of 37 micro mol/kg is administered intraperitoneally; format: functional
[30] = test system: Mus musculus; experiment: Antagonism of apomorphine for 0-10 minutes in reserpinized mice when a dose of 3.7 micro mol/kg is administered intraperitoneally; format: functional
[31] = test system: Mus musculus; experiment: Antagonism of apomorphine for 0-10 minutes in reserpinized mice when a dose of 37 micro mol/kg is administered intraperitoneally; format: functional
[32] = test system: Mus musculus; experiment: Antagonism of apomorphine for 10-20 minutes in reserpinized mice when a dose of 37 micro mol/kg is administered intraperitoneally; format: functional
[33] = biological target: T2, D(2) dopamine receptor; experiment: Binding affinity against [3H]U-86,170-labeled dopamine receptor D2 in cloned CHO cells; format: cell-based
[34] = test system: Mus musculus; experiment: Ability to stimulate dopaminergic systems by effect on locomotor activity in reserpinized mice when a dose of 37 micro mol/kg is administered intraperitoneally; format: functional

CCCN1CC[C@H]2Cc3c(cccc3OC)C[C@@H]21
IC50 [1]: > 1000 nM

Oc1cccc2c1C[C@H]1CCN(CC3CC3)[C@@H]1C2 (racemic)
Locomotor activity [2]: 88
Locomotor activity [3]: 539
Locomotor activity [4]: 117
Locomotor activity [5]: 60
Locomotor activity [6]: 49
Locomotor activity [7]: 1033
Ki [8]: 118 nM
Locomotor activity [9]: 129
Locomotor activity [10]: 83
Locomotor activity [11]: 163
Intrinsic activity [12]: 73%
Locomotor activity [13]: 31
Locomotor activity [14]: 25
Locomotor activity [15]: 1

COc1cccc2c1C[C@H]1CCN[C@@H]1C2 (racemic)
ED50 [16]: > 125 µmol/kg
ED50 [17]: 1.7 µmol/kg
Max temperature decrease [18]: 6.2
IC50 [1]: > 1000 nM

COc1cccc2c1C[C@H]1CCN(Cc3ccccc3)[C@H]1C2 (racemic)
Ki [8]: 465 nM

C=CCN1CC[C@@H]2Cc3c(O)cccc3C[C@H]21 (racemic)
Intrinsic activity [12]: 91%

CC(N)Cc1ccccc1.O=S(=O)(O)O (stereo unspecified) [AMPHETAMINE SULFATE]
Time [19]: 2.6 s
Time [20]: 2.4 s
Time [21]: 2.9 s

C=CCN1CC[C@@H]2Cc3cccc(OC)c3C[C@@H]21 (racemic)
IC50 [22]: > 1000 nM

CCCN1CC[C@@H]2Cc3c(cccc3OC)C[C@@H]21 (racemic)
IC50 [1]: > 1000 nM

COc1cccc2c1C[C@H]1CCN(Cc3ccccc3)[C@@H]1C2 (racemic)
Ki [8]: > 10000 nM

COc1cccc2c1C[C@H]1CCN(CC3CC3)[C@H]1C2 (racemic)
Ki [8]: 748 nM

C=CCN1CC[C@@H]2Cc3c(cccc3OC)C[C@H]21 (racemic)
ED50 [23]: inactive
ED50 [24]: > 10.7 µmol/kg and 6.8 µmol/kg

CCCN1[C@H](C)C[C@@H]2Cc3cccc(OC)c3C[C@@H]21 (racemic)
IC50 [1]: > 1000 nM

C=CCN1CC[C@@H]2Cc3cccc(OC)c3C[C@H]21 (racemic)
IC50 [1]: > 1000 nM

C=CCN1CC[C@@H]2Cc3c(cccc3OC)C[C@@H]21 (racemic)
Ki [8]: 429 nM

CCCN1CC[C@@H]2Cc3c(O)cccc3C[C@H]21 (racemic)
Intrinsic activity [12]: 79%

C=CCN1CC[C@H]2Cc3c(O)cccc3C[C@@H]21
Locomotor activity [2]: 119
Locomotor activity [25]: 86
Locomotor activity [26]: 119
ED50 [27]: 0.94 µmol/kg
Locomotor activity [28]: 1
Locomotor activity [29]: 77
Ki [8]: 47 nM
Locomotor activity [9]: 81
Locomotor activity [30]: 109
Locomotor activity [31]: 84
Locomotor activity [32]: 103
Locomotor activity [10]: 121
Intrinsic activity [12]: 21%
Ki [33]: 235 nM
Locomotor activity [34]: 113
Locomotor activity [15]: 45

COc1cccc2c1C[C@H]1CCN[C@H]1C2 (racemic)
IC50 [1]: > 1000 nM

CCCN1CC[C@@H]2Cc3c(O)cccc3C[C@@H]21 (racemic)
Intrinsic activity [12]: 61%

CCCN1CC[C@@H]2Cc3c(cccc3OC)C[C@H]21
Locomotor activity [2]: 30
Locomotor activity [3]: 851
Locomotor activity [4]: 14
Locomotor activity [5]: 12
Locomotor activity [6]: 20
Locomotor activity [7]: 308
Locomotor activity [9]: 86
Locomotor activity [10]: 20
Locomotor activity [11]: 72
IC50 [1]: > 1000 nM
Locomotor activity [13]: 18
Ki [33]: 75 nM
Locomotor activity [14]: 21
Locomotor activity [15]: 581
